How the values were obtained:
[1] = test system: Tyrosine-protein kinase ABL1 (Homo sapiens), P00519 [F317I]; settings: Compound concentration 1000.0 nM
[2] = test system: Tyrosine-protein kinase ABL1 (Homo sapiens), P00519 [F317L]; settings: Compound concentration 1000.0 nM
[3] = target: 5'-AMP-activated protein kinase catalytic subunit alpha-1 (Homo sapiens) (UniProt Q13131); settings: Compound concentration 1000.0 nM
[4] = target: NUAK family SNF1-like kinase 1 (Homo sapiens) (UniProt O60285); settings: Compound concentration 1000.0 nM
[5] = target: Mitogen-activated protein kinase kinase kinase 6 (Homo sapiens) (UniProt O95382); settings: Compound concentration 1000.0 nM
[6] = target: Tyrosine-protein kinase Blk (Homo sapiens) (UniProt P51451); settings: Compound concentration 1000.0 nM
[7] = target: Mitotic checkpoint serine/threonine-protein kinase BUB1 (Homo sapiens) (UniProt O43683); settings: Compound concentration 1000.0 nM
[8] = target: Calcium/calmodulin-dependent protein kinase kinase 1 (Homo sapiens) (UniProt Q8N5S9); settings: Compound concentration 1000.0 nM
[9] = target: Peripheral plasma membrane protein CASK (Homo sapiens) (UniProt O14936); settings: Compound concentration 1000.0 nM
[10] = target: Casein kinase I isoform gamma-1 (Homo sapiens) (UniProt Q9HCP0); settings: Compound concentration 1000.0 nM
[11] = target: Death-associated protein kinase 3 (Homo sapiens) (UniProt O43293); settings: Compound concentration 1000.0 nM
Sequence of Death-associated protein kinase 3 (Homo sapiens) (O43293 whole entry, looked up): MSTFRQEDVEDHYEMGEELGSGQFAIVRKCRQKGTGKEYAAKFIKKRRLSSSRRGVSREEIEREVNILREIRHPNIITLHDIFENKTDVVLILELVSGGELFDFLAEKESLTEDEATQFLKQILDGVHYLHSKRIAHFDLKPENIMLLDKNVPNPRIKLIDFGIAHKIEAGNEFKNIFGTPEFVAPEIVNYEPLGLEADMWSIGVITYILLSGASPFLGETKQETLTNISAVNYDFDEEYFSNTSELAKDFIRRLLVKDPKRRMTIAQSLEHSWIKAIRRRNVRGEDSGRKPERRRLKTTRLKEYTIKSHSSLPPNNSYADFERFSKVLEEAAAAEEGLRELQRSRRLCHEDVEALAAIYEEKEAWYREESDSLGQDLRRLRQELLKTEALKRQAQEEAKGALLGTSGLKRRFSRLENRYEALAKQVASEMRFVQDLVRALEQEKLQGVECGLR

[12] = target: Serine/threonine-protein kinase DCLK3 (Homo sapiens) (UniProt Q9C098); settings: Compound concentration 1000.0 nM
[13] = test system: Epidermal growth factor receptor (Homo sapiens), P00533 [UNDEFINED MUTATION]; settings: Compound concentration 1000.0 nM
[14] = target: Ephrin type-A receptor 1 (Homo sapiens) (UniProt P21709); settings: Compound concentration 1000.0 nM
[15] = target: Ephrin type-B receptor 3 (Homo sapiens) (UniProt P54753); settings: Compound concentration 1000.0 nM
Sequence of Ephrin type-B receptor 3 (Homo sapiens) (P54753 whole entry): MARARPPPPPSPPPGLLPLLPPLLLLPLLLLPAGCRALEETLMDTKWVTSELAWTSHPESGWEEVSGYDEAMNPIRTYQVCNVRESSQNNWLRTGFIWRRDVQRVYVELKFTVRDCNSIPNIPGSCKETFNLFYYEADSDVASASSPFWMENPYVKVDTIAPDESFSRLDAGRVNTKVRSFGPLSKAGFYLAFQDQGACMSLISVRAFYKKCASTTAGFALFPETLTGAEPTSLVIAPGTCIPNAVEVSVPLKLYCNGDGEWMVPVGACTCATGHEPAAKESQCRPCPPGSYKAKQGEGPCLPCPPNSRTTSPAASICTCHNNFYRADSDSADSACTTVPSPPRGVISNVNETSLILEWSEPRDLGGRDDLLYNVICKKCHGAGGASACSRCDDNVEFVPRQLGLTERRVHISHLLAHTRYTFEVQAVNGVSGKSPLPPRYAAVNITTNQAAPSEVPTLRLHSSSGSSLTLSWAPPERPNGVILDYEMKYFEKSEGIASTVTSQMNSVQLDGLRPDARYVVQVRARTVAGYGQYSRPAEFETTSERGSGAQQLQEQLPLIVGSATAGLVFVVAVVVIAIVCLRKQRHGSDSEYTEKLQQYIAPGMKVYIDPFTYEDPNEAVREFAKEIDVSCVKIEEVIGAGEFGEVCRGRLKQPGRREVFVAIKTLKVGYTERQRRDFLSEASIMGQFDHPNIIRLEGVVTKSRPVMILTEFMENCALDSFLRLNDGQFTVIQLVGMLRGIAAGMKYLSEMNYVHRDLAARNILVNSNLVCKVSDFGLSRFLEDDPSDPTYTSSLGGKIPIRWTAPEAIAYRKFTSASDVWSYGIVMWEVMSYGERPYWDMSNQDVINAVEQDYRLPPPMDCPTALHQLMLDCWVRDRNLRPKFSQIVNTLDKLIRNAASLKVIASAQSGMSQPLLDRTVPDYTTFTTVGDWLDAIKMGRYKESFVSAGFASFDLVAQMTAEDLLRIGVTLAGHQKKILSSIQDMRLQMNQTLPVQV

[16] = target: Ephrin type-B receptor 4 (Homo sapiens) (UniProt P54760); settings: Compound concentration 1000.0 nM
[17] = test system: Receptor-type tyrosine-protein kinase FLT3 (Homo sapiens), P36888 [D835H]; settings: Compound concentration 1000.0 nM
[18] = test system: Receptor-type tyrosine-protein kinase FLT3 (Homo sapiens), P36888 [N841I]; settings: Compound concentration 1000.0 nM
[19] = target: Tyrosine-protein kinase HCK (Homo sapiens) (UniProt P08631); settings: Compound concentration 1000.0 nM
[20] = target: Mitogen-activated protein kinase kinase kinase kinase 1 (Homo sapiens) (UniProt Q92918); settings: Compound concentration 1000.0 nM
[21] = target: Hormonally up-regulated neu tumor-associated kinase (Homo sapiens) (UniProt P57058); settings: Compound concentration 1000.0 nM
Sequence of Hormonally up-regulated neu tumor-associated kinase (Homo sapiens) (P57058 whole entry): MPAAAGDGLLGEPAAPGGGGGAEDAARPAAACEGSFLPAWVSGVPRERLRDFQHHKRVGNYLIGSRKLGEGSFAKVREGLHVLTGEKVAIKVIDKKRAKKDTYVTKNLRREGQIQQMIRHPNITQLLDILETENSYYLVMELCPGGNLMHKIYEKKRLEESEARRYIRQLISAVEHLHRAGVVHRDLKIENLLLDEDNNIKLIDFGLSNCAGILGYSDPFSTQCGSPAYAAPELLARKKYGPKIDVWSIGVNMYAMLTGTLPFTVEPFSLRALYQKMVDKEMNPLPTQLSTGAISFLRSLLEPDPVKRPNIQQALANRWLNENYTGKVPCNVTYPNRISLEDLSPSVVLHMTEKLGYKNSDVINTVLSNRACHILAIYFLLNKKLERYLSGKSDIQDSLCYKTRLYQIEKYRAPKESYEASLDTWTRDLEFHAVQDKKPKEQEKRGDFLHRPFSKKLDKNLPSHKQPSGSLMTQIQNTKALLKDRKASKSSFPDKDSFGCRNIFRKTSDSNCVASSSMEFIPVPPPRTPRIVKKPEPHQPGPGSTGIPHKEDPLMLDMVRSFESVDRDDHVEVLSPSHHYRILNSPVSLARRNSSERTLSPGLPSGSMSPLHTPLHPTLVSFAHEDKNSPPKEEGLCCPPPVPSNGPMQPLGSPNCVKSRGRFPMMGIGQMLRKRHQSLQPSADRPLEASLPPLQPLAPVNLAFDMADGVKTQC

[22] = target: Serine/threonine-protein kinase ICK (Homo sapiens) (UniProt Q9UPZ9); settings: Compound concentration 1000.0 nM
[23] = target: Inhibitor of nuclear factor kappa-B kinase subunit alpha (Homo sapiens) (UniProt O15111); settings: Compound concentration 1000.0 nM
[24] = target: Interleukin-1 receptor-associated kinase 1 (Homo sapiens) (UniProt P51617); settings: Compound concentration 1000.0 nM
Sequence of Interleukin-1 receptor-associated kinase 1 (Homo sapiens) (P51617 whole entry, looked up): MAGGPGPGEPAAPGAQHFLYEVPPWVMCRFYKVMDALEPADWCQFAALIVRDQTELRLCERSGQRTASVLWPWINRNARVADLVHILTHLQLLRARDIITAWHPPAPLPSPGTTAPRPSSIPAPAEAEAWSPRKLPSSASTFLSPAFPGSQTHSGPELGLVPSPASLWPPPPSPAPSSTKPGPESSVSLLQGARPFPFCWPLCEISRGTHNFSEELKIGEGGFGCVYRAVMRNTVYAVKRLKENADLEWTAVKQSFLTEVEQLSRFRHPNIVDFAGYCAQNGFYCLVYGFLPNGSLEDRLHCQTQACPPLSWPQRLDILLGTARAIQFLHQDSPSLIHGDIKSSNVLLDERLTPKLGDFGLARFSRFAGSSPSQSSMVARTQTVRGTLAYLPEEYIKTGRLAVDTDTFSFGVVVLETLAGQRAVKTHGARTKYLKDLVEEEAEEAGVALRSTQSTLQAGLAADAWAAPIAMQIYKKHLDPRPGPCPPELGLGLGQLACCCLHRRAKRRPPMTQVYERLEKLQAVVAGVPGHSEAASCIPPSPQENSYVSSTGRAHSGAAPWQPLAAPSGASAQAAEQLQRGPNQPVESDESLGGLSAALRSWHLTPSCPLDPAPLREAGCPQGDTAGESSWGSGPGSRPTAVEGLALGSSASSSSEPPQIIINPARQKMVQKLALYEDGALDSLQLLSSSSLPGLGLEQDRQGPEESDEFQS

[25] = target: Tyrosine-protein kinase JAK1 (Homo sapiens) (UniProt P23458); settings: Compound concentration 1000.0 nM
[26] = target: Tyrosine-protein kinase Lyn (Homo sapiens) (UniProt P07948); settings: Compound concentration 1000.0 nM
Sequence of Tyrosine-protein kinase Lyn (Homo sapiens) (P07948 2-512 limits assumed): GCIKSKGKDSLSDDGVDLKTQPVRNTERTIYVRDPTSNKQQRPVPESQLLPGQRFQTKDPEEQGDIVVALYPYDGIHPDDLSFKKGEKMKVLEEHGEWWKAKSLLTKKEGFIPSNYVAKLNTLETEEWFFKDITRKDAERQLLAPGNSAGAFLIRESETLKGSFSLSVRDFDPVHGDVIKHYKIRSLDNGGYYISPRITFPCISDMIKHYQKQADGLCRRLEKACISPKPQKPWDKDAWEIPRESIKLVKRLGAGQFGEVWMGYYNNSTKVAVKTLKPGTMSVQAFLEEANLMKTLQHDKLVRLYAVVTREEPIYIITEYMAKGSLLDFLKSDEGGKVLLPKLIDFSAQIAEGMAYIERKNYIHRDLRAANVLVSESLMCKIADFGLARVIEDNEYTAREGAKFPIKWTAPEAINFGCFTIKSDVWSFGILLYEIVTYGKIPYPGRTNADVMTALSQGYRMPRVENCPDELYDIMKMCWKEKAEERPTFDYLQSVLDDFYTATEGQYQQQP

[27] = target: Mitogen-activated protein kinase kinase kinase 2 (Homo sapiens) (UniProt Q9Y2U5); settings: Compound concentration 1000.0 nM
[28] = target: Dual specificity mitogen-activated protein kinase kinase 2 (Homo sapiens) (UniProt P36507); settings: Compound concentration 1000.0 nM
[29] = target: Dual specificity mitogen-activated protein kinase kinase 7 (Homo sapiens) (UniProt O14733); settings: Compound concentration 1000.0 nM
[30] = target: Serine/threonine-protein kinase Nek5 (Homo sapiens) (UniProt Q6P3R8); settings: Compound concentration 1000.0 nM
[31] = target: Serine/threonine-protein kinase PAK 1 (Homo sapiens) (UniProt Q13153); settings: Compound concentration 1000.0 nM
Sequence of Serine/threonine-protein kinase PAK 1 (Homo sapiens) (Q13153 whole entry): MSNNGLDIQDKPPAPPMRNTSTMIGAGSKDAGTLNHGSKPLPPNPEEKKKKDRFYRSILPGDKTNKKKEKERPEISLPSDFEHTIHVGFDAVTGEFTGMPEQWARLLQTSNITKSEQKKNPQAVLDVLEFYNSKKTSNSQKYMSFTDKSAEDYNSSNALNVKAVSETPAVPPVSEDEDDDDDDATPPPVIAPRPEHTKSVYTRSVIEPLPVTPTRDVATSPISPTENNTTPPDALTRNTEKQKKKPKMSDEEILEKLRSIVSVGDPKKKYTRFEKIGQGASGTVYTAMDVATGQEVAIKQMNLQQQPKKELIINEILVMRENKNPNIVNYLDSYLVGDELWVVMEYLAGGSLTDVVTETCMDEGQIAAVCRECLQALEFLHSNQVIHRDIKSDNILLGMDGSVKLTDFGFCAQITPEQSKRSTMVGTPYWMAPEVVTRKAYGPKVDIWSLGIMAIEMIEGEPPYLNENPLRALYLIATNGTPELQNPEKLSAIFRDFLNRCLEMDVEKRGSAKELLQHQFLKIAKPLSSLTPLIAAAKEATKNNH

[32] = target: Cyclin-dependent kinase 14 (Homo sapiens) (UniProt O94921); settings: Compound concentration 1000.0 nM
[33] = target: cAMP-dependent protein kinase catalytic subunit beta (Homo sapiens) (UniProt P22694); settings: Compound concentration 1000.0 nM
[34] = target: Serine/threonine-protein kinase PLK3 (Homo sapiens) (UniProt Q9H4B4); settings: Compound concentration 1000.0 nM
[35] = test system: Proto-oncogene tyrosine-protein kinase receptor Ret (Homo sapiens), P07949 [V804M]; settings: Compound concentration 1000.0 nM
Sequence of Proto-oncogene tyrosine-protein kinase receptor Ret (Homo sapiens), P07949 [V804M] (P07949 whole entry V804M): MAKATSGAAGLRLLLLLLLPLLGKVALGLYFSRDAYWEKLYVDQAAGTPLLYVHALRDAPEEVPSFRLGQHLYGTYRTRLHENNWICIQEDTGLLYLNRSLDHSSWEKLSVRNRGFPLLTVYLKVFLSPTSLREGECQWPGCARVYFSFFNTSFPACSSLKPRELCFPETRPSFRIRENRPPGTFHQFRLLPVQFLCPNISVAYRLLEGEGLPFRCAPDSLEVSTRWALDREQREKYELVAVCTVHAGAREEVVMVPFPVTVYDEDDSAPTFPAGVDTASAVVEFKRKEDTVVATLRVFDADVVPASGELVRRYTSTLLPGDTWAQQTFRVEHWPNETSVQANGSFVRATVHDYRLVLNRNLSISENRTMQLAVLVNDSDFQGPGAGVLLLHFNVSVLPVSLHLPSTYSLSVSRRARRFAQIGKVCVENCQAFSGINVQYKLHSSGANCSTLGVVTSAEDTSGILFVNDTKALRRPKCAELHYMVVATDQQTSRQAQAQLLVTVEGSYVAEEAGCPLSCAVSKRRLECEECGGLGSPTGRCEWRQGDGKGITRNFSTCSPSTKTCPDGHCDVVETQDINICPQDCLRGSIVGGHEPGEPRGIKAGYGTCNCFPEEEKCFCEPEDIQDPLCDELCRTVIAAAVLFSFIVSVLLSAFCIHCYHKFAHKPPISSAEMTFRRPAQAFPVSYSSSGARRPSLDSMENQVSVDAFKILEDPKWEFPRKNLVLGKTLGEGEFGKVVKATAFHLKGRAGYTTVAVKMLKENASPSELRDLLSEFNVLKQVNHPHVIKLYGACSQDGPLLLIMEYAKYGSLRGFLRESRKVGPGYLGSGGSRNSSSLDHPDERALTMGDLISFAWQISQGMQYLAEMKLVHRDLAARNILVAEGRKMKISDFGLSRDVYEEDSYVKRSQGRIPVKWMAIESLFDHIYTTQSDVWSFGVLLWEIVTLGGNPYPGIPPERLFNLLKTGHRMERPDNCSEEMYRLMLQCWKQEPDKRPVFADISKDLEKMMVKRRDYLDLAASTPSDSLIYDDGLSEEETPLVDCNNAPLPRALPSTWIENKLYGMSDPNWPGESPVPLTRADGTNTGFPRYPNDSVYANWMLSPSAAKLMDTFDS

[36] = target: Receptor-interacting serine/threonine-protein kinase 4 (Homo sapiens) (UniProt P57078); settings: Compound concentration 1000.0 nM
[37] = target: Ribosomal protein S6 kinase alpha-4 (Homo sapiens) (UniProt O75676); settings: Compound concentration 1000.0 nM
[38] = target: Serine/threonine-protein kinase Sgk1 (Homo sapiens) (UniProt O00141); settings: Compound concentration 1000.0 nM
[39] = target: Serine/threonine-protein kinase SIK1 (Homo sapiens) (UniProt P57059); settings: Compound concentration 1000.0 nM
[40] = target: STE20/SPS1-related proline-alanine-rich protein kinase (Homo sapiens) (UniProt Q9UEW8); settings: Compound concentration 1000.0 nM
[41] = target: TGF-beta receptor type-2 (Homo sapiens) (UniProt P37173); settings: Compound concentration 1000.0 nM
[42] = target: Angiopoietin-1 receptor (Homo sapiens) (UniProt Q02763); settings: Compound concentration 1000.0 nM
[43] = target: Transient receptor potential cation channel subfamily M member 6 (Homo sapiens) (UniProt Q9BX84); settings: Compound concentration 1000.0 nM
[44] = target: 5-hydroxytryptamine receptor 1E (Homo sapiens) (UniProt P28566); settings: Compound concentration 10.0 uM
[45] = target: D(1B) dopamine receptor (Homo sapiens) (UniProt P21918); settings: Compound concentration 10.0 uM

O=C(NCc1ncc(C(F)(F)F)cc1Cl)c1ccc2c(c1)C1(CCS(=O)(=O)CC1)[C@H](C1CC1)N2S(=O)(=O)c1ccc(F)cc1 [BAY-784]
inactive: residual activity [1] 83% | residual activity [2] 88% | residual activity [4] 83% | residual activity [5] 83% | residual activity [6] 78% | residual activity [7] 68% | residual activity [8] 100% | residual activity [9] 75% | residual activity [10] 86% | residual activity [11] 90% | residual activity [12] 92% | residual activity [13] 100% | residual activity [14] 100% | residual activity [15] 100% | residual activity [16] 100% | residual activity [17] 92% | residual activity [18] 58% | residual activity [19] 69% | residual activity [20] 100% | residual activity [21] 84% | residual activity [22] 100% | residual activity [23] 77% | residual activity [24] 82% | residual activity [25] 87% | residual activity [26] 100% | residual activity [27] 66% | residual activity [28] 88% | residual activity [29] 72% | residual activity [30] 100% | residual activity [31] 100% | residual activity [32] 100% | residual activity [33] 96% | residual activity [34] 92% | residual activity [35] 100% | residual activity [36] 93% | residual activity [37] 100% | residual activity [38] 79% | residual activity [39] 100% | residual activity [40] 84% | residual activity [41] 100% | residual activity [42] 100% | residual activity [43] 81% | inhibition [44] 10.4% | inhibition [45] 19.1%
active: residual activity [3] 39%

O=C(NCc1ncc(C(F)(F)F)cc1Cl)c1ccc2c(c1)C1(CCS(=O)(=O)CC1)[C@@H](C1CC1)N2S(=O)(=O)c1ccc(F)cc1 [BAY-786]
active: residual activity [7] 1.9%
inactive: residual activity [1] 71% | residual activity [2] 78% | residual activity [3] 97% | residual activity [4] 88% | residual activity [5] 68% | residual activity [6] 100% | residual activity [8] 72% | residual activity [9] 64% | residual activity [10] 90% | residual activity [11] 89% | residual activity [12] 69% | residual activity [13] 79% | residual activity [14] 86% | residual activity [15] 100% | residual activity [16] 94% | residual activity [17] 100% | residual activity [18] 78% | residual activity [19] 86% | residual activity [20] 89% | residual activity [21] 85% | residual activity [22] 97% | residual activity [23] 84% | residual activity [24] 77% | residual activity [25] 85% | residual activity [26] 100% | residual activity [27] 88% | residual activity [28] 78% | residual activity [29] 79% | residual activity [30] 86% | residual activity [31] 80% | residual activity [32] 100% | residual activity [33] 85% | residual activity [34] 82% | residual activity [35] 100% | residual activity [36] 72% | residual activity [37] 96% | residual activity [38] 77% | residual activity [39] 89% | residual activity [40] 77% | residual activity [41] 71% | residual activity [42] 96% | residual activity [43] 92% | inhibition [44] -1.55% | inhibition [45] -0.49%

— ChEMBL document CHEMBL4507266, “Data for DCP probe BAY-784” (2021)
